Biological target: human TRPA1 (Homo sapiens (Human), UniProt O75762)
Experiment: Measurement of TRPA1 antagonist activity (1): intracellular calcium increase
Type: cell-based
Conditions: 293T cells transfected with human TRPA1 expression plasmid; allylisothiocyanate 20 μM stimulation; intracellular calcium fluorescence; read-out: hTRPA1 IC50
In short: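 Calcium-flux readout of TRPA1 block: compound given 10 min before 20 μM (final) allylisothiocyanate, fluorescence tracked 5 min. Cells were 293T transiently expressing human TRPA1, dye-loaded 1 hr in HBSS, 20 mM HEPES, pH 7.2. Inhibition scaled between agonist-only and buffer-only responses; IC50 by sigmoid fitting.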

Sequence of human TRPA1 (O75762 whole entry): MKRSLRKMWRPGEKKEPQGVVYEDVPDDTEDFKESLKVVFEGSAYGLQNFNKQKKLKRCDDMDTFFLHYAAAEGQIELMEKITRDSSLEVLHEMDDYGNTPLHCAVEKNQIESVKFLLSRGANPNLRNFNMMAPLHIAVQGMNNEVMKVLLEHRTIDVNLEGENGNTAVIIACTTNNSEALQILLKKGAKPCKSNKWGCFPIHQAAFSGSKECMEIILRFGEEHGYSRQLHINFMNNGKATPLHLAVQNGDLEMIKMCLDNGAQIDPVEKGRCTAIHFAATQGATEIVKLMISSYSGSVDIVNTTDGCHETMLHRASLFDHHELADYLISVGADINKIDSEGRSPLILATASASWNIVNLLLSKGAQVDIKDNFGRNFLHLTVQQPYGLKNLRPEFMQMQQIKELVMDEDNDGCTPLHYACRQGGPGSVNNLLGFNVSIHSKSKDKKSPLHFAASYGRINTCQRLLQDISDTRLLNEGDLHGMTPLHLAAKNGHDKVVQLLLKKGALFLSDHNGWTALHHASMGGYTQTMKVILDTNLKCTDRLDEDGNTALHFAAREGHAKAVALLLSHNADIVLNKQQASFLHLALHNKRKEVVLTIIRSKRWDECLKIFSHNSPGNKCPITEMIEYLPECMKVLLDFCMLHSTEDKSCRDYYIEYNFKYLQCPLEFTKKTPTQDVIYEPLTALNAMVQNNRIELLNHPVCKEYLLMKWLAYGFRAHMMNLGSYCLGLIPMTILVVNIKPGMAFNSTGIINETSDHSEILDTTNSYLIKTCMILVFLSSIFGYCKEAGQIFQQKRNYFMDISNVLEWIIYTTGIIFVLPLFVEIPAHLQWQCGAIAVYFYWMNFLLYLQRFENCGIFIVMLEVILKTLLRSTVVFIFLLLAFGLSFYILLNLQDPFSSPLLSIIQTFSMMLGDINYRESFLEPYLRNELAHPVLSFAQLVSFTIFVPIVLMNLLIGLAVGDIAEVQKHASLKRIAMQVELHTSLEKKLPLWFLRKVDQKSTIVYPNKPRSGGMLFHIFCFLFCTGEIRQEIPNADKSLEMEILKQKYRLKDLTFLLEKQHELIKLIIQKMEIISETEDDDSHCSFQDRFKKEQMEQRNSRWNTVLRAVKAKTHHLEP

Row | Compound | IC50 [nM]
1 | O=C(NCc1ccnc(-c2ccc(OCC(F)(F)F)cc2)c1)[C@@H]1CCCN1S(=O)(=O)c1cc2ccccc2o1 [Example 204, (2S)-1-(benzofuran-2-ylsulfonyl)-N-[[2-[4-(2,2,2-trifluoroethoxy)phenyl]-4-pyridyl]methyl]pyrrolidine-2-carboxamide] | 35
2 | O=C(NCc1cc(-c2ccc(C(F)(F)F)nc2)ncn1)[C@@H]1CCCN1S(=O)(=O)c1cc2ccccc2o1 [Example 205, (2S)-1-(benzofuran-2-ylsulfonyl)-N-[[6-[6-(trifluoromethyl)-3-pyridyl]pyrimidin-4-yl]methyl]pyrrolidine-2-carboxamide] | 4
3 | O=C(NCc1cc(-c2ccc(C(F)(F)F)cn2)ncn1)[C@@H]1CCCN1S(=O)(=O)c1cc2ccccc2o1 [Example 206, (2S)-1-(benzofuran-2-ylsulfonyl)-N-[[6-[5-(trifluoromethyl)-2-pyridyl]pyrimidin-4-yl]methyl]pyrrolidine-2-carboxamide] | 12
4 | O=C(NCc1cc(-c2cnc(C(F)(F)F)nc2)ncn1)[C@@H]1CCCN1S(=O)(=O)c1cc2ccccc2o1 [Example 207, (2S)-1-(benzofuran-2-ylsulfonyl)-N-[[6-[2-(trifluoromethyl)pyrimidin-5-yl]pyrimidin-4-yl]methyl]pyrrolidine-2-carboxamide] | 4
5 | O=C(NCc1cnnc(-c2ccc(C(F)(F)F)cc2)c1)[C@@H]1CCCN1S(=O)(=O)c1cc2ccccc2o1 [Example 208, (2S)-1-(benzofuran-2-ylsulfonyl)-N-[[6-[4-(trifluoromethyl)phenyl]-pyridazin-4-yl]methyl]pyrrolidine-2-carboxamide] | 34
6 | O=C(NCc1cnnc(-c2ccc(C(F)(F)F)nc2)c1)[C@@H]1CCCN1S(=O)(=O)c1cc2ccccc2o1 [Example 209, (2S)-1-(benzofuran-2-ylsulfonyl)-N-[[6-[6-(trifluoromethyl)-3-pyridyl]pyridazin-4-yl]methyl]pyrrolidine-2-carboxamide] | 110
7 | O=C(NCc1cc(-c2ccc(C(F)(F)F)cc2)cnn1)[C@@H]1CCCN1S(=O)(=O)c1cc2ccccc2o1 [Example 210, (2S)-1-(benzofuran-2-ylsulfonyl)-N-[[5-[4-(trifluoromethyl)phenyl]-pyridazin-3-yl]methyl]pyrrolidine-2-carboxamide] | 19
8 | O=C(NCc1cc(-c2ccc(C(F)(F)F)nc2)cnn1)[C@@H]1CCCN1S(=O)(=O)c1cc2ccccc2o1 [Example 211, (2S)-1-(benzofuran-2-ylsulfonyl)-N-[[5-[6-(trifluoromethyl)-3-pyridyl]pyridazin-3-yl]methyl]pyrrolidine-2-carboxamide] | 72
9 | O=C(NCc1cc(-c2ccc(C(F)(F)F)cn2)cnn1)[C@@H]1CCCN1S(=O)(=O)c1cc2ccccc2o1 [Example 212, (2S)-1-(benzofuran-2-ylsulfonyl)-N-[[5-[5-(trifluoromethyl)-2-pyridyl]pyridazin-3-yl]methyl]pyrrolidine-2-carboxamide] | 27
10 | O=C(NCc1ccc(O)c(-c2ncc(C(F)(F)F)cn2)c1)[C@@H]1CCCN1S(=O)(=O)c1cc2ccccc2o1 [Example 213, (2S)-1-(benzofuran-2-ylsulfonyl)-N-[[4-hydroxy-3-[5-(trifluoromethyl)-pyrimidin-2-yl]phenyl]-methyl]pyrrolidine-2-carboxamide] | 47
11 | O=C(NCc1ccc(O)c(-c2cnc(C(F)(F)F)cn2)c1)[C@@H]1CCCN1S(=O)(=O)c1cc2ccccc2o1 [Example 214, (2S)-1-(benzofuran-2-ylsulfonyl)-N-[[4-hydroxy-3-[5-(trifluoromethyl)-pyrazin-2-yl]phenyl]-methyl]pyrrolidine-2-carboxamide] | 13
12 | O=C(NCc1cc(-c2ccc(C(F)(F)F)cn2)c(O)cn1)[C@@H]1CCCN1S(=O)(=O)c1cc2ccccc2o1 [Example 215, (2S)-1-(benzofuran-2-ylsulfonyl)-N-[[5-hydroxy-4-[5-(trifluoromethyl)-2-pyridyl]-2-pyridyl]methyl]pyrrolidine-2-carboxamide] | 2.1
13 | O=C(NC1(c2cc(Cl)cc(-c3ccc(C(F)(F)F)nc3)c2)CC1)[C@@H]1CCCN1S(=O)(=O)c1cc2ccccc2o1 [Example 216, (2S)-1-(benzofuran-2-ylsulfonyl)-N-[1-[3-chloro-5-[6-(trifluoromethyl)-3-pyridyl]phenyl]cyclopropyl]-pyrrolidine-2-carboxamide] | 13
14 | O=C(NC1(c2ccnc(-c3ccc(C(F)(F)F)cc3)c2)CC1)[C@@H]1CCCN1S(=O)(=O)c1cc2ccccc2o1 [Example 217, (2S)-1-(benzofuran-2-ylsulfonyl)-N-[1-[2-[4-(trifluoromethyl)phenyl]-4-pyridyl]cyclopropyl]-pyrrolidine-2-carboxamide] | 64
15 | O=C(NC1(c2ccnc(-c3ccc(C(F)(F)F)nc3)c2)CC1)[C@@H]1CCCN1S(=O)(=O)c1cc2ccccc2o1 [Example 218, (2S)-1-(benzofuran-2-ylsulfonyl)-N-[1-[2-[6-(trifluoromethyl)-3-pyridyl]-4-pyridyl]cyclopropyl]-pyrrolidine-2-carboxamide] | 96
16 | O=C(NCc1ccnc(-c2ccc(C(F)(F)F)cc2)c1)[C@@H]1CCCN1S(=O)(=O)c1cc2cccc(F)c2o1 [Example 219, (2S)-1-(7-fluorobenzofuran-2-yl)sulfonyl-N-[[2-[4-(trifluoromethyl)phenyl]-4-pyridyl]methyl]pyrrolidine-2-carboxamide] | 390
17 | O=C(NCc1ccnc(-c2ccc(C(F)(F)F)cc2)c1)[C@@H]1CCCN1S(=O)(=O)c1cc2ccc(F)cc2o1 [Example 220, (2S)-1-(6-fluorobenzofuran-2-yl)sulfonyl-N-[[2-[4-(trifluoromethyl)phenyl]-4-pyridyl]methyl]pyrrolidine-2-carboxamide] | 54
18 | O=C(NCc1ccnc(-c2ccc(C(F)(F)F)cn2)c1)[C@@H]1CCCN1S(=O)(=O)c1cc2cc(F)ccc2o1 [Example 221, (2S)-1-(5-fluorobenzofuran-2-yl)sulfonyl-N-[[2-[5-(trifluoromethyl)-2-pyridyl]-4-pyridyl]methyl]pyrrolidine-2-carboxamide] | 6.6
19 | O=C(NCc1cc(-c2ccc(OC(F)(F)F)cc2)ccn1)[C@@H]1CCCN1S(=O)(=O)c1cc2cc(F)ccc2o1 [Example 222, (2S)-1-(5-fluorobenzofuran-2-yl)sulfonyl-N-[[4-[4-(trifluoromethoxy)phenyl]-2-pyridyl]methyl]pyrrolidine-2-carboxamide] | 2.4
20 | O=C(NCc1cc(-c2ccc(C(F)(F)F)cn2)ccn1)[C@@H]1CCCN1S(=O)(=O)c1cc2cc(F)ccc2o1 [Example 223, (2S)-1-(5-fluorobenzofuran-2-yl)sulfonyl-N-[[4-[5-(trifluoromethyl)-2-pyridyl]-2-pyridyl]methyl]pyrrolidine-2-carboxamide] | 0.88
21 | O=C(NCc1cc(-c2ccc(C(F)(F)F)nc2)ncn1)[C@@H]1CCCN1S(=O)(=O)c1cc2cc(F)ccc2o1 [Example 224, (2S)-1-(5-fluorobenzofuran-2-yl)sulfonyl-N-[[6-[6-(trifluoromethyl)-3-pyridyl]pyrimidin-4-yl]methyl]pyrrolidine-2-carboxamide] | 0.66
22 | O=C(NCc1cc(-c2ccc(C(F)(F)F)cn2)ccn1)[C@@H]1C=CCN1S(=O)(=O)c1cc2cc(F)ccc2o1 [Example 225, (2S)-1-(5-fluorobenzofuran-2-yl)sulfonyl-N-[[4-[5-(trifluoromethyl)-2-pyridyl]-2-pyridyl]methyl]-2,5-dihydropyrrole-2-carboxamide] | 1.3
23 | O=C(NCc1cc(-c2ccc(C(F)(F)F)cc2)ncn1)[C@@H]1[C@@H](O)CCN1S(=O)(=O)c1cc2ccccc2o1 [Example 226, (2S,3S)-1-(benzofuran-2-ylsulfonyl)-3-hydroxy-N-[[6-[4-(trifluoromethyl)-phenyl]pyrimidin-4-yl]methyl]pyrrolidine-2-carboxamide] | 25
24 | O=C(NCc1cc(-c2ccc(C(F)(F)F)cn2)ccn1)[C@@H]1[C@@H](O)CCN1S(=O)(=O)c1cc2ccccc2o1 [Example 227, (2S,3S)-1-(benzofuran-2-ylsulfonyl)-3-hydroxy-N-[[4-[5-(trifluoromethyl)-2-pyridyl]-2-pyridyl]methyl]pyrrolidine-2-carboxamide] | 42
25 | O=C(NCc1cc(-c2ccc(C(F)(F)F)cn2)ccn1)[C@@H]1[C@@H](O)CCN1S(=O)(=O)c1cc2cc(F)ccc2o1 [Example 228, (2S,3S)-1-(5-fluorobenzofuran-2-yl)sulfonyl-3-hydroxy-N-[[4-[5-(trifluoromethyl)-2-pyridyl]-2-pyridyl]methyl]pyrrolidine-2-carboxamide] | 32
26 | O=C(NCc1cc(-c2ccc(C(F)(F)F)cn2)ccn1)[C@@H]1CC(F)(F)CN1S(=O)(=O)c1cc2cc(F)ccc2o1 [Example 229, (2S)-4,4-difluoro-1-(5-fluorobenzofuran-2-yl)sulfonyl-N-[[4-[5-(trifluoromethyl)-2-pyridyl]-2-pyridyl]methyl]pyrrolidine-2-carboxamide] | 12
27 | O=C(NCc1cc(-c2ccc(C(F)(F)F)cn2)ccn1)[C@@H]1CCN1S(=O)(=O)c1cc2cc(F)ccc2o1 [Example 230, (2S)-1-(5-fluorobenzofuran-2-yl)sulfonyl-N-[[4-[5-(trifluoromethyl)-2-pyridyl]-2-pyridyl]methyl]azetidine-2-carboxamide] | 4.4
28 | C[C@H](NS(=O)(=O)c1cc2ccccc2o1)C(=O)NCc1cc(-c2ccc(OC(F)(F)F)cc2)ncn1 [Example 231, (2S)-2-(benzofuran-2-ylsulfonylamino)-N-[[6-[4-(trifluoromethoxy)phenyl]-pyrimidin-4-yl]methyl]propanamide] | 14
29 | C[C@H](NS(=O)(=O)c1cc2cc(F)ccc2o1)C(=O)NCc1cccc(-c2ncc(C(F)(F)F)cn2)c1 [Example 232, (2S)-2-[(5-fluorobenzofuran-2-yl)sulfonylamino]-N-[[3-[5-(trifluoromethyl)pyrimidin-2-yl]phenyl]methyl]propanamide] | 77
